Experiments:
[1] = tested on: DHPS; conditions: ref 35; read-out: IC50; cited from earlier work
[2] = target: T1, DHPS (Homo sapiens, UniProt P49366); assay: Hyp'Assay: cell-free eIF5A hypusination in 96-well plates (recombinant eIF5A, DHPS, DOHH; anti-hypusine antibody Hpu24), substance present in the DHPS step; type: biochemical; conditions: 5 μM spermidine; for hypusination signal, Mean (quantification from Figure 5A): control 98,5
T1 construct: host or cells: E. coli BL21 (DE3)
T1 sequence (P49366 1-369): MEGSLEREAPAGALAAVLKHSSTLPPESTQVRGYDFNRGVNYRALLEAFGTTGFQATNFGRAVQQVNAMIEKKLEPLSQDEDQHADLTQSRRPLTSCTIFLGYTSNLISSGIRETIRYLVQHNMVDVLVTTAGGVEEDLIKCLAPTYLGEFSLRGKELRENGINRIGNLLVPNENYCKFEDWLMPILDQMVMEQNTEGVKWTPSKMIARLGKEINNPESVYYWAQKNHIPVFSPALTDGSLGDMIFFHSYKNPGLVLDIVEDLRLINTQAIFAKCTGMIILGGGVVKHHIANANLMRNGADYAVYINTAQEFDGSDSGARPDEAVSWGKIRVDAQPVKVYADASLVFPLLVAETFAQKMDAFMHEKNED
Procedure: The principle of the Hyp’Assay (Fig 2A) is to perform eIF5A hypusination reaction in 96-well plates, allow eIF5A to adsorb to the plate, incubate with an anti-hypusine antibody and a secondary antibody conjugated to HRP and reveal hypusination using TMB as a substrate.
[…] Then 10 μL containing 1 μg of DOHH with 10 μM Fe^2+ (H8FeN2O8S2^. 6H2O) were added. After 1 h proteins were analyzed by Western Blot using antibodies toward DHPS, DOHH, Hypusine, and eIF5A.
The cell-free reaction described in 4.4 is performed in triplicates in a 96-wells plate (MaxiSorp, ThermoFisher) in the presence of 3 μg of eIF5A, 2 μg of DHPS, and 2 μg of DOHH by well. The reaction product, hypusinated eIF5A, is adsorbed onto the plate overnight at 4°C. The plate is washed (100 μL/well) thrice with PBS-T (PBS– 0.05% Tween20), then saturated with 1% non-fat dry milk in PBS-T for 2 h at room temperature. The plate is washed thrice with PBS-T and incubated overnight at 4°C with the anti-hypusine antibody (1:2000 in saturation buffer, 50 μL/well). The next day and after 5 washes with PBS-T, HRP-coupled anti-rabbit secondary antibody diluted 1:5000 in saturation buffer (50 μL/well) is added for 2 h at room temperature.

[3] = tested on: eIF5A hypusination in MCF7 cells; assay: eIF5A hypusination in intact MCF7 cells, Western blot; type: cell-based, human; conditions: 40 μM, 24 h, Ctrl 100, 4 experiments
Procedure: We tested the ability of the GC7 analogs to inhibit hypusination in intact cells. MCF-7 cells (Fig 5B), a classical model of breast cancer cell line, and HT29 cells (Fig 5C), a cell model of colorectal cancer, were treated with 40 μM of GC7, 1, 2, 3, and 4 for 24h. Cells were lysed and analyzed by Western blot. As observed, none of the molecules modified eIF5A expression. […] GC7 analogs inhibited hypusination from 35 to 55%.
The human breast cancer cell line MCF7 (HTB-22 ATCC) and colorectal adenocarcinoma HT29 (HTB-38 ATCC) were cultured in DMEM (Gibco) supplemented with 10% FBS (Dutscher), 10 U/mL penicillin, and […] streptomycin. 1 mM of aminoguanidine was added to the medium to inhibit the degradation of GC7 and polyamines by amine oxidase from the serum and the production of reactive oxygen species. Cells were maintained at 37°C, 5% CO2 in a humid atmosphere.
After treatment, cells were washed with ice-cold PBS and lysed in RIPA Buffer (50 mM Tris pH 7.5, 150 mM NaCl, 0.1% SDS, 0.5% Na Deoxycholate, 5 mM NaF, 2.5 mM Na4P2O7, 1% NP4O) containing a protease inhibitor cocktail (complete Roche). 10 μg of proteins were separated by SDS PAGE and transferred to a PVDF membrane (Immobilon-P Millipore). The membranes were probed with the appropriate primary antibody that was detected by horseradish peroxidase-conjugated secondary antibody (Jackson Immunoresearch) and visualized by chemiluminescence (ECL Amersham RPN 3244) using a Fuji LAS-4000 imager. ImageJ® software was used to quantify band intensity and the ratios of proteins of interest were normalized to a loading control. Full-length Western blots are provided in the supplementary data (S19, S20 Figs).

[4] = concentration 1 (no unit on page; Fig 5A 0 to 1 mM)
[5] = concentration 10 (no unit on page; Fig 5A 0 to 1 mM)
[6] = concentration 100 (no unit on page; Fig 5A 0 to 1 mM)
[7] = concentration 1000 (no unit on page; Fig 5A 0 to 1 mM)

Row | Structure (SMILES) | IC50 [1] | concentration from which inhibition of hypusination was detectable [2] | hypusination signal, Mean (quantification from Figure 5A) [2, 4] | hypusination signal, Mean (quantification from Figure 5A) [2, 5] | hypusination signal, Mean (quantification from Figure 5A) [2, 6] | hypusination signal, Mean (quantification from Figure 5A) [2, 7] | hypusinated eIF5A, Western blot quantification, Mean (Figure 5B) [3]
1 | COc1ccccc1Oc1c(Cl)nc(-c2ccc(I)cc2)nc1Cl [GL-1, 4,6-dichloro-2-(4-iodophenyl)-5-(2-methoxyphenoxy)pyrimidine] | 210 nM |  |  |  |  |  | 
2 | N=C(N)NCCCCCCCO [compound 3, 7-hydroxyheptylguanidine] |  | 1 µM | 75,7 | 65,6 | 63,6 | 58,2 | 50.5
3 | N=C(N)NCCCCCCCCO [compound 4, 8-hydroxyoctylguanidine] |  | 100 µM | 109,4 | 86,9 | 67,2 | 64,0 | 64.75

— paper PMC11819603, “Development of a reliable, sensitive, and convenient assay for the discovery of new eIF5A hypusination inhibitors” (PLOS ONE, 2025)
